From PubChem BioAssay AID2060495 (Molecular Pharmacology Branch, DTP, NCI, 2025)

Test system: 521955-158-R2-J5-PDC complex spheroid viability
Test: Anticancer human tumor 521955-158-R2-J5-PDC patient-derived pancreatic carcinoma cell line growth inhibition [GQUAD]
Conditions: for IC50: curve of first compound; for viability, T/C: stronger effect = lower value
In short: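 Multi-cell-type spheroids of tumor cells with HUVEC and mesenchymal stem cells, treated with drug combinations. Concentrations descend in half-log steps from near clinical Cmax, or from 10 microM where Cmax is unknown; viability read-out.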

[1] = second compound 0.0316 µM, first compound 0.0316 µM
[2] = second compound 0.0316 µM, first compound 0.316 µM
[3] = second compound 0.1 µM, first compound 0.0316 µM
[4] = second compound 0.1 µM, first compound 0.316 µM
[5] = second compound 0.316 µM, first compound 0.0316 µM
[6] = second compound 0.316 µM, first compound 0.316 µM
[7] = second compound 1 µM, first compound 0.0316 µM
[8] = second compound 1 µM, first compound 0.316 µM
[9] = second compound 3.16 µM, first compound 0.0316 µM
[10] = second compound 3.16 µM, first compound 0.316 µM
[11] = second compound 10 µM, first compound 0.0316 µM
[12] = second compound 10 µM, first compound 0.316 µM
[13] = second compound 0.0316 µM, first compound 0.1 µM
[14] = second compound 0.0316 µM, first compound 1 µM
[15] = second compound 0.0316 µM, first compound 3.16 µM
[16] = second compound 0.0316 µM, first compound 10 µM
[17] = second compound 0.1 µM, first compound 0.1 µM
[18] = second compound 0.1 µM, first compound 1 µM
[19] = second compound 0.1 µM, first compound 3.16 µM
[20] = second compound 0.1 µM, first compound 10 µM
[21] = second compound 0.316 µM, first compound 0.1 µM
[22] = second compound 0.316 µM, first compound 1 µM
[23] = second compound 0.316 µM, first compound 3.16 µM
[24] = second compound 0.316 µM, first compound 10 µM
[25] = second compound 1 µM, first compound 0.1 µM
[26] = second compound 1 µM, first compound 1 µM
[27] = second compound 1 µM, first compound 3.16 µM
[28] = second compound 1 µM, first compound 10 µM
[29] = second compound 3.16 µM, first compound 0.1 µM
[30] = second compound 3.16 µM, first compound 1 µM
[31] = second compound 3.16 µM, first compound 3.16 µM
[32] = second compound 3.16 µM, first compound 10 µM
[33] = second compound 10 µM, first compound 0.1 µM
[34] = second compound 10 µM, first compound 1 µM
[35] = second compound 10 µM, first compound 3.16 µM
[36] = second compound 10 µM, first compound 10 µM
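Further: spheroids exposed to agents for one week before reading.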
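Wherever viability, T/C is given: 100% = DMSO vehicle control viability.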

CC[C@@]1(O)C(=O)OCc2c1cc1n(c2=O)Cc2cc3c(CN(C)C)c(O)ccc3nc2-1 + Cc1cnc(CNC(=O)c2c(=O)c3ccc(N4CCCN(C)CC4)nc3n3c2sc2ccccc23)cn1
IC50 (second compound 0.0316 µM): 0.0562 µM | IC50 (second compound 0.1 µM): 0.0278 µM | IC50 (second compound 0.316 µM): 0.0107 µM | IC50 (second compound 1 µM): < 0.000999 µM | IC50 (second compound 3.16 µM): < 0.000999 µM | IC50 (second compound 10 µM): < 0.000999 µM | viability, T/C (second compound 0.0316 µM, first compound 0.000999 µM): 82.3% | viability, T/C (second compound 0.0316 µM, first compound 0.00316 µM): 80.4% | viability, T/C (second compound 0.0316 µM, first compound 0.00999 µM): 59.7% | viability, T/C [1]: 71.6% | viability, T/C (second compound 0.0316 µM, first compound 0.0999 µM): 29% | viability, T/C [2]: 12.1% | viability, T/C (second compound 0.1 µM, first compound 0.000999 µM): 74.9% | viability, T/C (second compound 0.1 µM, first compound 0.00316 µM): 78% | viability, T/C (second compound 0.1 µM, first compound 0.00999 µM): 73.3% | viability, T/C [3]: 46.7% | viability, T/C (second compound 0.1 µM, first compound 0.0999 µM): 22.4% | viability, T/C [4]: 16.2% | viability, T/C (second compound 0.316 µM, first compound 0.000999 µM): 51.6% | viability, T/C (second compound 0.316 µM, first compound 0.00316 µM): 47.2% | viability, T/C (second compound 0.316 µM, first compound 0.00999 µM): 55% | viability, T/C [5]: 29.6% | viability, T/C (second compound 0.316 µM, first compound 0.0999 µM): 18.7% | viability, T/C [6]: 15.6% | viability, T/C (second compound 1 µM, first compound 0.000999 µM): 23.7% | viability, T/C (second compound 1 µM, first compound 0.00316 µM): 24.9% | viability, T/C (second compound 1 µM, first compound 0.00999 µM): 24.6% | viability, T/C [7]: 19% | viability, T/C (second compound 1 µM, first compound 0.0999 µM): 16.7% | viability, T/C [8]: 11.2% | viability, T/C (second compound 3.16 µM, first compound 0.000999 µM): 21.1% | viability, T/C (second compound 3.16 µM, first compound 0.00316 µM): 29.1% | viability, T/C (second compound 3.16 µM, first compound 0.00999 µM): 18.2% | viability, T/C [9]: 17.8% | viability, T/C (second compound 3.16 µM, first compound 0.0999 µM): 11.8% | viability, T/C [10]: 10.1% | viability, T/C (second compound 10 µM, first compound 0.000999 µM): 21.3% | viability, T/C (second compound 10 µM, first compound 0.00316 µM): 23.7% | viability, T/C (second compound 10 µM, first compound 0.00999 µM): 22.1% | viability, T/C [11]: 15.7% | viability, T/C (second compound 10 µM, first compound 0.0999 µM): 11.5% | viability, T/C [12]: 6.12%

CC1COCCN1c1cc(-c2ccnn2C)c2ccnc(-c3ccn[nH]3)c2n1 (stereo not drawn) + Cc1[nH]c2ccc(F)cc2c1-c1nc2c3cccnc3c3ncccc3c2[nH]1
IC50 (second compound 0.0316 µM): 0.0551 µM | IC50 (second compound 0.1 µM): 0.0526 µM | IC50 (second compound 0.316 µM): 0.0568 µM | IC50 (second compound 1 µM): 0.059 µM | IC50 (second compound 3.16 µM): 0.0584 µM | IC50 (second compound 10 µM): 0.0535 µM | viability, T/C [1]: 81% | viability, T/C [13]: 16.8% | viability, T/C [2]: 10.3% | viability, T/C [14]: 13.1% | viability, T/C [15]: 18.4% | viability, T/C [16]: 18.2% | viability, T/C [3]: 73.7% | viability, T/C [17]: 20.6% | viability, T/C [4]: 8.98% | viability, T/C [18]: 12.4% | viability, T/C [19]: 18.1% | viability, T/C [20]: 18.8% | viability, T/C [5]: 84.4% | viability, T/C [21]: 16.7% | viability, T/C [6]: 13.3% | viability, T/C [22]: 12.7% | viability, T/C [23]: 18.5% | viability, T/C [24]: 19.8% | viability, T/C [7]: 90.1% | viability, T/C [25]: 16.1% | viability, T/C [8]: 9.88% | viability, T/C [26]: 11.1% | viability, T/C [27]: 19.8% | viability, T/C [28]: 21.6% | viability, T/C [9]: 88.1% | viability, T/C [29]: 15.8% | viability, T/C [10]: 9.58% | viability, T/C [30]: 11.2% | viability, T/C [31]: 21.6% | viability, T/C [32]: 25% | viability, T/C [11]: 77.7% | viability, T/C [33]: 16% | viability, T/C [12]: 10.9% | viability, T/C [34]: 15.9% | viability, T/C [35]: 19.3% | viability, T/C [36]: 24%

COc1ncnc(C2CC2)c1-c1ncc2cnn(Cc3ccc(-c4nc(C(F)(F)F)cn4C(C)C)cc3)c2n1 + Cc1cnc(CNC(=O)c2c(=O)c3ccc(N4CCCN(C)CC4)nc3n3c2sc2ccccc23)cn1
IC50 (second compound 0.0316 µM): > 10 µM | IC50 (second compound 0.1 µM): > 10 µM | IC50 (second compound 0.316 µM): < 0.0316 µM | IC50 (second compound 1 µM): < 0.0316 µM | IC50 (second compound 3.16 µM): < 0.0316 µM | IC50 (second compound 10 µM): < 0.0316 µM | viability, T/C [1]: 92.4% | viability, T/C [13]: 73.3% | viability, T/C [2]: 96.7% | viability, T/C [14]: 71.9% | viability, T/C [15]: 94.3% | viability, T/C [16]: 85.5% | viability, T/C [3]: 58% | viability, T/C [17]: 58.6% | viability, T/C [4]: 53.1% | viability, T/C [18]: 55.9% | viability, T/C [19]: 57.2% | viability, T/C [20]: 55.2% | viability, T/C [5]: 30.3% | viability, T/C [21]: 31.6% | viability, T/C [6]: 31.4% | viability, T/C [22]: 31.5% | viability, T/C [23]: 28.1% | viability, T/C [24]: 25.6% | viability, T/C [7]: 19.3% | viability, T/C [25]: 17.7% | viability, T/C [8]: 17% | viability, T/C [26]: 17.4% | viability, T/C [27]: 18.8% | viability, T/C [28]: 16.6% | viability, T/C [9]: 14.5% | viability, T/C [29]: 14.3% | viability, T/C [10]: 16.4% | viability, T/C [30]: 13.2% | viability, T/C [31]: 13.7% | viability, T/C [32]: 12.8% | viability, T/C [11]: 13% | viability, T/C [33]: 11.2% | viability, T/C [12]: 9.95% | viability, T/C [34]: 13.9% | viability, T/C [35]: 6.73% | viability, T/C [36]: 6.37%

C=CC(=O)N1CCN(c2nc(=O)n(-c3c(C)ccnc3C(C)C)c3nc(-c4c(O)cccc4F)c(F)cc23)C(C)C1 (stereo not drawn) + CN(C)c1ccc(Nc2c3ccc(NC(=O)CCN4CCCC4)cc3nc3cc(NC(=O)CCN4CCCC4)ccc23)cc1
IC50 (second compound 0.0316 µM): > 10 µM | IC50 (second compound 0.1 µM): > 10 µM | IC50 (second compound 0.316 µM): > 10 µM | IC50 (second compound 1 µM): > 10 µM | IC50 (second compound 3.16 µM): > 10 µM | IC50 (second compound 10 µM): > 10 µM | viability, T/C [1]: 103% | viability, T/C [13]: 94.1% | viability, T/C [2]: 105% | viability, T/C [14]: 96.8% | viability, T/C [15]: 108% | viability, T/C [16]: 101% | viability, T/C [3]: 98.2% | viability, T/C [17]: 105% | viability, T/C [4]: 119% | viability, T/C [18]: 111% | viability, T/C [19]: 122% | viability, T/C [20]: 93.3% | viability, T/C [5]: 91.7% | viability, T/C [21]: 90.4% | viability, T/C [6]: 101% | viability, T/C [22]: 114% | viability, T/C [23]: 101% | viability, T/C [24]: 95.3% | viability, T/C [7]: 90.3% | viability, T/C [25]: 84.5% | viability, T/C [8]: 94.1% | viability, T/C [26]: 112% | viability, T/C [27]: 100% | viability, T/C [28]: 81.3% | viability, T/C [9]: 71.7% | viability, T/C [29]: 87.5% | viability, T/C [10]: 85.5% | viability, T/C [30]: 96.9% | viability, T/C [31]: 96.7% | viability, T/C [32]: 73.5% | viability, T/C [11]: 77.5% | viability, T/C [33]: 72.8% | viability, T/C [12]: 72.5% | viability, T/C [34]: 70.6% | viability, T/C [35]: 101% | viability, T/C [36]: 70.6%
